pKi: −log10 of the molar value.

This experiment deals with T1, cathepsin K (Homo sapiens, UniProt P43235).
T1 sequence (P43235 115-329): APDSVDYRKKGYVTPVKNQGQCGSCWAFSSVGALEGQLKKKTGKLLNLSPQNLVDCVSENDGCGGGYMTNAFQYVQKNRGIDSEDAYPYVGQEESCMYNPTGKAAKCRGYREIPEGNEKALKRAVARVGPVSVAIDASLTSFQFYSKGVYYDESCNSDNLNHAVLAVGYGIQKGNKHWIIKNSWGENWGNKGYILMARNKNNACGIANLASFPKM
Kind of experiment: Measurement of cathepsin K inhibitory activity. The format is biochemical. As to conditions: Dixon plot, 37° C., pH 5.5. How it is done: 65 μL of cathepsin K enzyme reaction buffer (50 mmol/L of 2-(N-morpholino)ethanesulfonate, 2 mmol/L of ethylenediaminetetraacetate (EDTA) and 4 mmol/L of dithiothreitol (DTT) were mixed to adjust to pH 5.5), 5 μL of cysteine protease inhibitor solution of several concentrations, 20 μL of synthesized substrate (t-butyloxycarbonyl-L-alanyl-glycyl-L-prolyl-L-arginine-4-methyl-chromanyl-7-amide) solution of several concentrations and 10 μL of cathepsin K enzyme solution were mixed and the increase of fluorescence intensity when reacted at 37° C. was measured (λex (excitation wavelength)=355 nm, λem (fluorescence wavelength)=460 nm). As to the substrate and the compound of the present invention, enzyme reactions were carried out in combination of several appropriate concentrations and Dixon plotting was prepared, to define the absolute value of X-coordinate of the intersection point of the graph as Ki value.
In the case of `CC(C)C[C@H](NC(=O)C1CCCCC1)C(=O)C(=O)NN=C1SCCN1C` [8(1)], the pKi is 8.60.

As to `CC(C)(C)CC(NC(=O)C1CCCCC1)C(=O)C(=O)NN1C(=O)CCC1=O` (stereo not drawn) [example 5], the pKi was 8.40.

For the compound `CC(C)(C)CC(NC(=O)C1CCCCCC1)C(=O)C(=O)NN1CCCS1(=O)=O` (stereo not drawn) [2(6)], the pKi is 7.85.

For the origin of these results see patent US7655804B2, “Diketohydrazine derivative compounds and drugs containing the compounds as the active ingredient” (Ono Pharmaceutical Co., Ltd., priority 2002, dated 2010).
